From paper PMC3642328, “Ataxia Telangiectasia-Mutated (ATM) Kinase Activity Is Regulated by ATP-driven Conformational Changes in the Mre11/Rad50/Nbs1 (MRN) Complex*^([image sbox.jpg])” (The Journal of Biological Chemistry, 2013) come the findings set out here.

Holding throughout (type): biochemical
In assay [1] the target is T1, MRN (nucleotide site of Rad50) (Homo sapiens, UniProt Q92878).
T1 construct: full-length Mre11/Rad50/Nbs1 coexpressed in Sf21 insect cells, purified; with Double-strand break repair protein MRE11; Nibrin
T1 sequence (Q92878 1-1312): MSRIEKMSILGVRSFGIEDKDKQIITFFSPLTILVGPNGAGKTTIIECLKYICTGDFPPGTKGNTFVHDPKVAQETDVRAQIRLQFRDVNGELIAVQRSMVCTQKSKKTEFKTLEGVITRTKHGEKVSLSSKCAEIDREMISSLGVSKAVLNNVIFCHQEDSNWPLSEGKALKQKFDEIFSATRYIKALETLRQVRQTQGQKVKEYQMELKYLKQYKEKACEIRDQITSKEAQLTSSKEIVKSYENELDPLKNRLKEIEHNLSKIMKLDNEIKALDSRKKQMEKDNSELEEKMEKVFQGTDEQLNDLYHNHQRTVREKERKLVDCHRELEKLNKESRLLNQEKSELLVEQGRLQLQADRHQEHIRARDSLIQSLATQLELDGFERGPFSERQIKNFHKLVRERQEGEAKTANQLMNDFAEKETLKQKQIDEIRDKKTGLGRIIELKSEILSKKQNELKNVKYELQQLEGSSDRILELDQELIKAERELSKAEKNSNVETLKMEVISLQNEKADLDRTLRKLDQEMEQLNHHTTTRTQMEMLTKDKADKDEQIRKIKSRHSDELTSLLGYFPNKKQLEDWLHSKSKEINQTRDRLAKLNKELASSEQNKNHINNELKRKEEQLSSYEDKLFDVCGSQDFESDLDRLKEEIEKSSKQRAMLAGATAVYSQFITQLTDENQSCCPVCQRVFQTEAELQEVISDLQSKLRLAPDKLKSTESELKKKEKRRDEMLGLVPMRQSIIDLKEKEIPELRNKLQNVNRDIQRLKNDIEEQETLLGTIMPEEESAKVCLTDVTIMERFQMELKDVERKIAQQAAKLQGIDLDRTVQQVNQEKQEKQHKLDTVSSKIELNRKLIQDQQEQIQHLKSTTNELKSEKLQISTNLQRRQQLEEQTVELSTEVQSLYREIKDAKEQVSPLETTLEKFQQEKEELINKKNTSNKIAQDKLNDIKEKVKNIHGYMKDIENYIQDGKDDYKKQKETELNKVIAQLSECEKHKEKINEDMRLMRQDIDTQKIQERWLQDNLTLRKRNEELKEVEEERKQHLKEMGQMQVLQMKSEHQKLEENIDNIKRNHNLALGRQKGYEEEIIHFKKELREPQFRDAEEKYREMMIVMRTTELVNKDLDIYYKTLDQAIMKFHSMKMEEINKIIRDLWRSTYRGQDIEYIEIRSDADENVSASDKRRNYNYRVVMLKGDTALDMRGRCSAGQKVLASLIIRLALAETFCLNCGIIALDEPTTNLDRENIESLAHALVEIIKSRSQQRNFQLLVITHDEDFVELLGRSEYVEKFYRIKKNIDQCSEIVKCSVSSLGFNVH
T1 sequence (P49959 2-708 partner): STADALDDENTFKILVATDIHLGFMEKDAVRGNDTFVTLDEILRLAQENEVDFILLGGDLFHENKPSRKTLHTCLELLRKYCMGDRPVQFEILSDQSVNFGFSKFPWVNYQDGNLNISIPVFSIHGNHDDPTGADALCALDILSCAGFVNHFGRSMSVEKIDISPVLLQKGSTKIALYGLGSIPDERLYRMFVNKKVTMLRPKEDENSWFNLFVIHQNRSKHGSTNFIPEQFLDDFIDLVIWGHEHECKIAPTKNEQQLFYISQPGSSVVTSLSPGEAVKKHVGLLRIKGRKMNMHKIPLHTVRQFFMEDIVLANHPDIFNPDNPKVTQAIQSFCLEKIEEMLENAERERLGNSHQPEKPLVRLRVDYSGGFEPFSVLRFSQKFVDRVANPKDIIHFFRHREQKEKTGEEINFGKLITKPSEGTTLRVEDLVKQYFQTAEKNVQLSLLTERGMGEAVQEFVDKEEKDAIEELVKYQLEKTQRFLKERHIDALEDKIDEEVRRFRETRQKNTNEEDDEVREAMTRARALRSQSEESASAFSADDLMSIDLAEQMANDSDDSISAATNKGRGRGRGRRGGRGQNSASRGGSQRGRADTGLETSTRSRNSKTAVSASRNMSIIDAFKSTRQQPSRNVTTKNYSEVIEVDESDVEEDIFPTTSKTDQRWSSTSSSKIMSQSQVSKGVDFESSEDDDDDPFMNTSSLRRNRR
T1 sequence (O60934 1-754 partner): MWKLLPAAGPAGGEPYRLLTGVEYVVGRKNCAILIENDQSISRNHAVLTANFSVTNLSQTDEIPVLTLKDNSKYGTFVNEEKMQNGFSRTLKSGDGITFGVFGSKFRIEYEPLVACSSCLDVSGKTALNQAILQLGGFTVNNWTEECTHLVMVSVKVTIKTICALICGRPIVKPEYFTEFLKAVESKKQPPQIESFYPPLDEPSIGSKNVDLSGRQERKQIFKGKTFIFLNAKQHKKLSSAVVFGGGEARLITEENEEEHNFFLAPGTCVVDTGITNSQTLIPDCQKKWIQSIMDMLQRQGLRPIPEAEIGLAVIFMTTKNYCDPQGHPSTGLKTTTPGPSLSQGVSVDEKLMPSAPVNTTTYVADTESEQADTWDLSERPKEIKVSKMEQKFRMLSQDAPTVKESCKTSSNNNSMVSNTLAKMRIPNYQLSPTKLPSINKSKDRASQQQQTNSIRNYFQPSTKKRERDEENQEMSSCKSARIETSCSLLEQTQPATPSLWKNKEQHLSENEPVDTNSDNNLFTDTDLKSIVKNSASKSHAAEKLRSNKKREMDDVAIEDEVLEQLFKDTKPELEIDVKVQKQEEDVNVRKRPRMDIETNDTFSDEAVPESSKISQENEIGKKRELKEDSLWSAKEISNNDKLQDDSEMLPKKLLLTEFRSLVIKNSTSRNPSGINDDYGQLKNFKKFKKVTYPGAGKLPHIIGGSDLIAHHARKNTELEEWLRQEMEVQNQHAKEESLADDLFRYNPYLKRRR
Briefly: ATM kinase assay with analog-sensitive ATM Y2755A. The settings on record: N6-furfuryl-ATP as ATM nucleotide; MRN/DNA; AMP-PNP supports MRN activation of ATM.

The target of assay [2] is T2, ATM (Homo sapiens, UniProt Q13315, Y2755A).
T2 construct: full-length, Flag-tagged and HA-tagged, transiently expressed in human 293T cells, purified as dimer
Put plainly: kinase assay, GST-p53 Ser-15 phosphorylation, Western blot. The settings on record: H2O2-activated ATM without MRN; analog 1 mM; pH 7.5, 5 mM Mg, 30 C. In general terms: A western blot detects proteins with antibodies after separation by electrophoresis.

For assay [3], the target named is T1, MRN (nucleotide site of Rad50). Briefly: ATM kinase assay, inhibition of MRN/DNA-dependent activation. The conditions noted are these: wild-type ATM, ATP present; pH 7.5, 5 mM Mg, 30 C; site (Rad50 ATP pocket) inferred.

T2 sequence (Q13315 2-3056 Y2755A): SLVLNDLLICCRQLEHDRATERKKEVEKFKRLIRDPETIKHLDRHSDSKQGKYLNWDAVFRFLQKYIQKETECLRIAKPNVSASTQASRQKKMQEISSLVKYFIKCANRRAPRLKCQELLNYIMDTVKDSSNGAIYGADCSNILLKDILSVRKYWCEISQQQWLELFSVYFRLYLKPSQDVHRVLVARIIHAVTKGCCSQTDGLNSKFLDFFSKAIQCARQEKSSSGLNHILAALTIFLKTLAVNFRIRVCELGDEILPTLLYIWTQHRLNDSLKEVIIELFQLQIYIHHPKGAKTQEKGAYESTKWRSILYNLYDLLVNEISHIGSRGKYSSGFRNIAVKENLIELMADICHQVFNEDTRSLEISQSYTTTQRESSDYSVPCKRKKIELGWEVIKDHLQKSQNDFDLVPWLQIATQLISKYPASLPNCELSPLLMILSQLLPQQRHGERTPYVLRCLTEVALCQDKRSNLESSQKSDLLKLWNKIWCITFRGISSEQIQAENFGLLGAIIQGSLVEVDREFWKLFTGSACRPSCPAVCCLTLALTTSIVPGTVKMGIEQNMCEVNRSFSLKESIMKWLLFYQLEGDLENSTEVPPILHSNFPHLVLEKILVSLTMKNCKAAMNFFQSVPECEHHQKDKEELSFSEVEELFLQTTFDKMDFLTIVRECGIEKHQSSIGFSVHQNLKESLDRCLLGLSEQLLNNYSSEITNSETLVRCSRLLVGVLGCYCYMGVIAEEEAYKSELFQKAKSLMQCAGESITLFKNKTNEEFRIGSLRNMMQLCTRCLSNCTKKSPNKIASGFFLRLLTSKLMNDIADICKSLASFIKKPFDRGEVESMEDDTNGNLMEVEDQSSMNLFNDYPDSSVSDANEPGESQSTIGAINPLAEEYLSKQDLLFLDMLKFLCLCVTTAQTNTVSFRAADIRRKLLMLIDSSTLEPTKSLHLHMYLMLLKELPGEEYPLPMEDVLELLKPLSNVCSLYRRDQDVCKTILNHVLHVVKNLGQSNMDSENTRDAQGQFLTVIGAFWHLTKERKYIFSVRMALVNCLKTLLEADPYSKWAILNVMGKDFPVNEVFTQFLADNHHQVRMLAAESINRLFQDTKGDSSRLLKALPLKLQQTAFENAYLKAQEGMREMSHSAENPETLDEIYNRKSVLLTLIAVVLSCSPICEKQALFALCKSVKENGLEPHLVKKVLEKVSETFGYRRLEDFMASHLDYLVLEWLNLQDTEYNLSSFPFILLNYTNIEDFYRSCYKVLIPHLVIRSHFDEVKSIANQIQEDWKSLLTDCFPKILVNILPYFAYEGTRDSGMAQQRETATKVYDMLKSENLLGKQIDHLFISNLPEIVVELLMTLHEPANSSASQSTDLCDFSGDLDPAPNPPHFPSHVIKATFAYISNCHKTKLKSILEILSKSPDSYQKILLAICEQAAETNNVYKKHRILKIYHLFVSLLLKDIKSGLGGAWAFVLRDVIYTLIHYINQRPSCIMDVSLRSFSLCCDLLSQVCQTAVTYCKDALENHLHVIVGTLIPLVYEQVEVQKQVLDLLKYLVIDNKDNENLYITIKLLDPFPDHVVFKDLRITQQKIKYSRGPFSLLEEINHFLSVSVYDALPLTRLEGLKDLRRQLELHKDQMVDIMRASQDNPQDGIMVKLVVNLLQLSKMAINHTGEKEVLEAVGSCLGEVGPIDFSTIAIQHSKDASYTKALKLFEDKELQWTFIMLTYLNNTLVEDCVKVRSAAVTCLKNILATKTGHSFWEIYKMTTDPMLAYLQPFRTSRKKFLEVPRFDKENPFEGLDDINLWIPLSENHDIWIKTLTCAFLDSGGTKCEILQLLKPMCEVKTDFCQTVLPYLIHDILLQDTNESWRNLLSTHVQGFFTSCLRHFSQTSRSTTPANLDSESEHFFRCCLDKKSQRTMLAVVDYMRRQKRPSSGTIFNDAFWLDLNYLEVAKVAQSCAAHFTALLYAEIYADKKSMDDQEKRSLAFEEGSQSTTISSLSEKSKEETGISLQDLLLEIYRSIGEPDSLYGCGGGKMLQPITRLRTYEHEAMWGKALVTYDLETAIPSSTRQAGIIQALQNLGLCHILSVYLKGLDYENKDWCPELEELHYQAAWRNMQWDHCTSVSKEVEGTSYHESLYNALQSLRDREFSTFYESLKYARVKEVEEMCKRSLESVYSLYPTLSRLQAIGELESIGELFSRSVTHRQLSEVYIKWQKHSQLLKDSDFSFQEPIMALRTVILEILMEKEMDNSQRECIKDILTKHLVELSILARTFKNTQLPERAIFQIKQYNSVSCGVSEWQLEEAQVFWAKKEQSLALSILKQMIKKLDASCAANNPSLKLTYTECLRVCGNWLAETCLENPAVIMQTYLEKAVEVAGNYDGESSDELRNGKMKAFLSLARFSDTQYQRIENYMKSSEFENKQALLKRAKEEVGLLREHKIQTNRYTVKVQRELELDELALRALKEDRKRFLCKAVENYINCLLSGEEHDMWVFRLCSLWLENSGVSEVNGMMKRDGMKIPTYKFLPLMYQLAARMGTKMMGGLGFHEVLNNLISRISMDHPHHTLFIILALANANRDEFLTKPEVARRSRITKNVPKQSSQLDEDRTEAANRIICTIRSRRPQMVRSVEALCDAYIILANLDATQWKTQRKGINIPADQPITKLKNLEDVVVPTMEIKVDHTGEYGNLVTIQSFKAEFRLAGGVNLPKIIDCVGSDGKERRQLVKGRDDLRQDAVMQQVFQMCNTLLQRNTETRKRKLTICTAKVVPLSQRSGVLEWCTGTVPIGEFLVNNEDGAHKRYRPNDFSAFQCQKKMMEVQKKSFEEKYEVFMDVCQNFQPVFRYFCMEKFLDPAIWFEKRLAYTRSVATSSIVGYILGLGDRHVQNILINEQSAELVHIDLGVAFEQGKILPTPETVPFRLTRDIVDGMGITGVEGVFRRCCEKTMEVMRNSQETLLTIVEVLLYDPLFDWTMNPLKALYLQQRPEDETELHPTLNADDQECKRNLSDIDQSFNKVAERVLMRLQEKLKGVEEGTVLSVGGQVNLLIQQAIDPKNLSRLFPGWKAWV

With `Nc1ncnc2c1ncn2[C@@H]1O[C@H](COP(=O)(O)OP(=O)(O)NP(=O)(O)O)[C@@H](O)[C@H]1O` [AMP-PNP, adenosine 5′-(β,γ-imino)triphosphate], the “ATM kinase assay with analog-sensitive ATM Y2755A” value in assay [1] is “Y2755A ATM phosphorylated p53 in the presence of MRN/DNA, N6-(furfuryl)-ATP, and AMP-PNP”.

Take `CCCC(C)Nc1ncnc2c1ncn2[C@@H]1O[C@H](COP(=O)(O)OP(=O)(O)OP(=O)(O)O)[C@@H](O)[C@H]1O` (stereo partly drawn) [N6-(1-methylbutyl)-ATP, N6-(1-methylbutyl)adenosine-5′-O-triphosphate]: the “kinase assay, GST-p53 Ser-15 phosphorylation, Western blot” value in assay [2] is reported as “N6-(1-methylbutyl)-ATP was utilized by the Y2755A mutant ATM”. In addition, the “ATM kinase assay, inhibition of MRN/DNA-dependent activation” value in assay [3] was “N6-(1-methylbutyl)-ATP inhibited the activation of wild-type ATM by MRN/DNA”.
